Read-outs that look alike come from different tables or passages of the source.
Assays:
μ-opioid receptor [1] = target: T1, μ-opioid receptor (Homo sapiens (Human), UniProt P35372); assay: μ-opioid receptor radioligand dose-displacement binding assay ([3H]-diprenorphine); conditions: binding affinity, μ-opioid receptor membranes
Protocol: μ-opioid Receptor Binding Assay Procedures: Radioligand dose-displacement binding assays for μ-opioid receptors used 0.3 nM [^3H]-diprenorphine (Perkin Elmer, Shelton, Conn.), with […] membrane protein/well in a final volume of 500 μl binding buffer (10 mM MgCl2, 1 mM EDTA, 5% DMSO, 50 mM HEPES, pH 7.4). Reactions were carried out in the absence or presence of increasing concentrations of unlabeled naloxone. All reactions were conducted in 96-deep well polypropylene plates for 2 hr at room temperature. Binding reactions were terminated by rapid filtration onto 96-well Unifilter GF/C filter plates (Perkin Elmer, Shelton, Conn.), presoaked in 0.5% polyethylenimine using a 96-well tissue harvester (Perkin Elmer, Shelton, Conn.) followed by performing three filtration washes with 500 μl of ice-cold binding buffer. Filter plates were subsequently dried at 50° C. for 2-3 hours. BetaScint scintillation cocktail (Perkin Elmer, Shelton, Conn.) was added (50 μl/well), and plates were counted using a Packard Top-Count for 1 min/well. The data were analyzed using the one-site competition curve fitting functions in GraphPad PRISM™ v. 3.0 or higher (San Diego. Calif.), or an in-house function for one-site competition curve-fitting.

κ opioid receptor [2] = target: T2, κ opioid receptor (Homo sapiens (Human), UniProt P41145); assay: κ-opioid receptor radioligand dose-displacement binding assay ([3H]-U69,593)
Protocol: κ-opioid Receptor Binding Assay Procedures: Membranes from recombinant HEK-293 cells expressing the human κ opioid receptor (cloned in house) were prepared by lysing cells in ice cold hypotonic buffer (2.5 mM MgCl2, 50 mM HEPES, pH 7.4) (10 mL/10 cm dish) followed by homogenization with a tissue grinder/Teflon pestle. Membranes were collected by centrifugation at 30,000× g for 15 min at 4° C. and pellets were resuspended in hypotonic buffer to a final concentration of 1-3 mg/mL. Protein concentrations were determined using the BioRad protein assay reagent with bovine serum albumen as standard. Aliquots of κ receptor membranes were stored at −80° C.
Radioligand dose displacement assays used 0.4 nM [^3]-U69,593 (GE Healthcare, Piscataway, N.J.; 40 Ci/mmole) with 15 μg membrane protein (recombinant κ opioid receptor expressed in HEK 293 cells; in-house prep) in a final volume of 200 μl binding buffer (5% DMSO, 50 mM Trizma base, pH 7.4). Non-specific binding was determined in the presence of 10 μM unlabeled naloxone or U69,593. All reactions were performed in 96-well polypropylene plates for 1 hr at a temperature of about 25° C. Binding reactions were terminated by rapid filtration onto 96-well Unifilter GF/C filter plates (Perkin Elmer, Shelton, Conn.) presoaked in 0.5% polyethylenimine (Sigma). Harvesting was performed using a 96-well tissue harvester (Perkin Elmer, Shelton, Conn.) followed by five filtration washes with 200 μl ice-cold binding buffer. Filter plates were subsequently dried at 50° C. for 1-2 hours. Fifty μl/well scintillation cocktail (Perkin Elmer, Shelton, Conn.) was added and plates were counted in a Packard Top-Count for 1 min/well. Data were analyzed using the sigmoidal dose-response curve fitting functions in GraphPad PRISM™ v. 3.0, or an in-house function for non-linear, sigmoidal dose-response curve-fitting.
κ-opioid Receptor Binding Data: In certain embodiments, the Compounds of the Invention will have a Ki (nM) for κ receptors of about 10,000 or more (which, for purposes of this invention, is interpreted as having no binding to the κ receptors).

μ-opioid receptor [3] = target: T1, μ-opioid receptor; assay: μ-opioid receptor [35S]GTPγS functional assay; format: biochemical; conditions: for Emax: maximal effect relative to DAMGO
Protocol: μ-Opioid Receptor Functional Assay Procedures: [^35S]GTPγS functional assays were conducted using freshly thawed μ-receptor membranes (Perkin Elmer, Shelton, Conn.). Assay reactions were prepared by sequentially adding the following reagents to binding buffer (100 mM NaCl, 10 mM MgCl2, 20 mM HEPES, pH 7.4) on ice (final concentrations indicated): membrane protein (0.026 mg/mL), saponin ([…]), GDP ([…]) and [^35S]GTPγS (0.20 nM; Perkin Elmer, Shelton, Conn.). The prepared membrane solution (190 μl/well) was transferred to 96-shallow well polypropylene plates containing 10 μl of 20× concentrated stock solutions of the agonist [D-Ala^2, N-methyl-Phe^4 Gly-ol^5]-enkephalin (DAMGO) prepared in dimethyl sulfoxide (DMSO). Plates were incubated for 30 min at about 25° C. with shaking. Reactions were terminated by rapid filtration onto 96-well Unifilter GF/B filter plates (Perkin Elmer, Shelton, Conn.) using a 96-well tissue harvester (Perkin Elmer, Shelton, Conn.) followed by three filtration washes with 200 μl of ice-cold wash buffer (10 mM NaH2PO4, 10 mM Na2HPO4, pH 7.4). Filter plates were subsequently dried at 50° C. for 2-3 hr, BetaScint scintillation cocktail (Perkin Elmer, Shelton, Conn.) was added (50 μl/well) and plates were counted using a Packard Top-Count for […]. Data were analyzed using the sigmoidal dose-response curve fitting functions in GraphPad PRISM™; v. 3.0, or an in-house function for non-linear, sigmoidal dose-response curve-fitting.
μ-Opioid Receptor Functional Data: μ GTP EC50 is the concentration of a compound providing 50% of the maximal response for the compound, at a μ-opioid receptor. […] In certain embodiments.
μ GTP Emax (%) is the maximal effect elicited by a compound relative to the effect elicited by DAMGO, a standard μ agonist. Generally, the μ GTP Emax (%) value measures the efficacy of a compound to treat or prevent pain or other Conditions.

κ opioid receptor [4] = target: T2, κ opioid receptor; assay: κ-opioid receptor [35S]GTPγS functional assay; format: biochemical; conditions: for Emax: maximal effect relative to U69,593
Protocol: κ-Opioid Receptor Functional Assay Procedures: Functional [^35S]GTPγS binding assays were conducted as follows, k opioid receptor membrane solution was prepared by sequentially adding final concentrations of 0.026 μg/μl κ membrane protein (in-house), 10 μg/mL saponin, 3 μM GDP and 0.20 [^35S]GTPγS to binding buffer (100 mM NaCl, 10 mM MgCl2, 20 mM HEPES, pH 7.4) on ice. The prepared membrane solution (190 μl/well) was transferred to 96-shallow well polypropylene plates containing 10 μl of 20× concentrated stock solutions of agonist prepared in DMSO. Plates were incubated for 30 min at a temperature of about 25° C. with shaking. Reactions were terminated by rapid filtration onto 96-well Unifilter GF/B filter plates (Perkin Elmer, Shelton, Conn.) using a 96-well tissue harvester (Packard) and followed by three filtration washes with 200 μl ice-cold binding buffer (10 mM NaH2PO4, 10 mM Na2HPO4, pH 7.4). Filter plates were subsequently dried at 50° C. for 2-3 hours. Fifty μl/well scintillation cocktail (Perkin Elmer, Shelton, Conn.) was added and plates were counted in a Packard Top-Count for 1 min/well. Data were analyzed using the sigmoidal dose-response curve fitting functions in GraphPad PRISM™ v. 3.0, or an in-house function for non-linear, sigmoidal dose-response curve-fitting.
κ-Opioid Receptor Functional Data: κ GTP EC50 is the concentration of a compound providing 50% of the maximal response for the compound at a κ receptor.
κ GTP Emax (%) is the maximal effect elicited by a compound relative to the effect elicited by U69,593.

[5] = binding affinity, recombinant κ opioid receptor expressed in HEK 293 cells, read-out: Ki (nM) Opioid Receptor κ
[6] = μ GTP EC50, read-out: GTPγS μ EC50
[7] = κ GTP EC50, read-out: GTPγS κ EC50

Compound	Ki (μ-opioid receptor [1])	Ki (κ opioid receptor [2]; [5])	Emax (μ-opioid receptor [3])	EC50 (μ-opioid receptor [3]; [6])	Emax (κ opioid receptor [4])	EC50 (κ opioid receptor [4]; [7])	Ki (κ opioid receptor [2])	EC50 (μ-opioid receptor [3])	EC50 (κ opioid receptor [4])
O=C(O)CCC[C@]12CCN(CC3CC3)[C@H](Cc3ccc(O)cc31)[C@@H]2CC(=O)O [Compound 10, 4-((2R,6R,11R)-11-(carboxymethyl)-3-(cyclopropylmethyl)-8-hydroxy-1,2,3,4,5,6-hexahydro-2,6-methanobenzo[d]azocin-6-yl)butanoic acid]	977 ± 335 nM	64.5 ± 11.3 nM	16 ± 3%	70.5 ± 26.9 nM	31.3 ± 1.86%	275 ± 43.6 nM			
CN(C)C(=O)CCC[C@]12CCN(CC3CC3)[C@H](Cc3ccc(O)cc31)/C2=C\C(=O)O [Compound 12, (Z)-2-((2R,6S)-3-(cyclopropylmethyl)-6-(4-(dimethylamino)-4-oxobutyl)-8-hydroxy-1,2,3,4,5,6-hexahydro-2,6-methanobenzo[d]azocin-11-ylidene)acetic acid]	853 ± 199 nM	42.5 ± 4.24 nM	48.7 ± 3.53%	421 ± 140 nM	74.7 ± 1.2%	1000 ± 106 nM			
O=C(O)/C=C1\[C@H]2Cc3ccc(O)cc3[C@]1(CCCC(=O)O)CCN2CC1CC1 [Compound 13, 4-((2R,6S,Z)-11-(carboxymethylene)-3-(cyclopropylmethyl)-8-hydroxy-1,2,3,4,5,6-hexahydro-2,6-methanobenzo[d]azocin-6-yl)butanoic acid]	1340 ± 356 nM	66.8 ± 8.74 nM	44.3 ± 9.06%	743 ± 195 nM	74.3 ± 7.84%	555 ± 61.1 nM			
COc1ccc2c(c1)[C@]1(CCO)CCN(CC3CC3)[C@H](C2)[C@@H]1CO [Compound 19, 2-((2R,6S,11R)-3-(cyclopropylmethyl)-11-(hydroxymethyl)-8-methoxy-1,2,3,4,5,6-hexahydro-2,6-methanobenzo[d]azocin-6-yl)ethanol]					40.3 ± 5.36%		89.6 ± 33 nM	> 20000 nM	1860 ± 231 nM
COc1ccc2c(c1)[C@]1(CC(N)=O)CCN(CC3CC3)[C@H](C2)[C@@H]1CO [Compound 22, 2-((2R,6S,11R)-3-(cyclopropylmethyl)-11-(hydroxymethyl)-8-methoxy-1,2,3,4,5,6-hexahydro-2,6-methanobenzo[d]azocin-6-yl)acetamide]		79.1 ± 19.1 nM	56 ± 3.61%	1280 ± 177 nM	41.7 ± 4.91%	2180 ± 326 nM			

— patent US9056836B2, “Benzomorphan analogs and the use thereof” (Purdue Pharma L.P., priority 2013, dated 2015)
